Here are results for 8 compounds from patent US9556135B2, “Amino-dihydrothiazine and amino-dioxido dihydrothiazine compounds as beta-secretase antagonists and methods of use” (Amgen Inc., priority 2012, dated 2017).

Like-named read-outs stand apart in the source and are kept apart here. Bounds are passed on as bounds.

Data set [1] concerns pigment epithelium of the rat's eye. To be noted: higher compound dose given for three months; cited from earlier work.
The subject of another data set is Aβ in lumbar CSF. To be noted: after oral dosing of 30 or 90 mg, healthy volunteers; cited from earlier work.
The target in a further data set is Cathepsin D (Cat D) (Homo sapiens (Human), UniProt P07339). Put plainly: In vitro enzymatic Cathepsin D (Cat D) FRET assay. To be noted: read-out: CatD IC50. It counts as biochemical. On the procedure:
In Vitro Enzymatic Cathepsin D (Cat D) FRET (Fluorescence Resonance Energy Transfer) Assay Recombinant Cat D was expressed in CHO cells. […] The Cat D enzyme (9 nM) is pre-incubated for one hour with inhibitors, typically in about 1 uL of DMSO according to a serial dilution, is added thereto. […] The FRET assay is terminated with by addition of Tris buffer, which raises the pH to neutrality, and the fluorescence is determined. The FRET substrate is a peptide with commercially available fluorophore and quencher, on opposite sides of the BACE cleavage site. The Cat D substrate peptide sequence is based on sequence #1 of Table 1 from Gulnik et al. […] Where available, the in-vitro Cat D FRET assay data for each of the Examples, conducted by the first procedure, is provided.

Data set [2] deals with Beta Secretase enzyme (BACE1) (Homo sapiens (Human), UniProt P56817). Kind of data set: In vitro enzymatic BACE FRET assay. The class given is biochemical. The protocol:
In Vitro Enzymatic BACE FRET (Fluorescence Resonance Energy Transfer) Assay (Enzyme Assay Data in the Example Tables I and II)
The assay buffer used in this screen is 0.05 M acetate, pH 4.2, 10% DMSO final, 100 uM genapol (which is a nonionic detergent, below its Critical Micelle Concentration). […] This assay is effectively started by the addition of FRET substrate (50 nM) and the combination is incubated for one hour. The FRET assay is terminated with by addition of Tris buffer, which raises the pH to neutrality, and the fluorescence is determined. The FRET substrate is a peptide with commercially available fluorophore and quencher, on opposite sides of the BACE cleavage site. Proteolytic cleavage of the FRET substrate releases quenching of fluorescence (excitation […] and […]).

In data set [3] the test system is Aβ40 in conditioned medium of cells stably expressing Amyloid Precursor Protein (APP). Put plainly: In vitro BACE cell-based assay (HEK cell assay), Aβ40 sandwich ELISA. The protocol:
In Vitro BACE Cell-Based Assay
The cell-based assay measures inhibition or reduction of Aβ40 in conditioned medium of test compound treated cells expressing amyloid precursor protein.
Cells stably expressing Amyloid Precursor Protein (APP) were plated at a density of 40K cells/well in 96 well plates (Costar). The cells were cultivated for 24 hours at 37° C. and 5% CO2 in DMEM supplemented with 10% FBS. The test compounds were then added to cells in 10-point dose response concentrations with the starting concentration being either 100 μM or 10 μM. The compounds were diluted from stock solutions in DMSO and the final DMSO concentration of the test compounds on cells was 0.1%. After 24 h of incubation with the test compounds the supernatant conditioned media was collected and the Aβ 40 levels were determined using a sandwich ELISA. The IC50 of the compound was calculated from the percent of control or percent inhibition of Aβ 40 as a function of the concentration of the test compound.
The sandwich ELISA to detect Aβ 40 was performed in 96 well microtiter plates, which were pre-treated with goat anti-rabbit IgG (Pierce). The capture and detecting antibody pair that were used to detect Aβ 40 from cell supernatants were affinity purified pAb40 (Biosource) and biotinylated 6E10 (Signet Labs Inc.), respectively. The optimal concentration for the pAb40 antibody was 3 μg/ml in Superblock/TBS (Pierce) that was supplemented with 0.05% Tween 20 (Sigma).
Cellular supernatants were incubated with the capture antibody for 3 h at 4° C., followed by 3 wash steps in TBS-tween (0.05%). The detecting antibody incubation was for 2 h at 4° C., again followed by the wash steps as described previously. The final readout of the ELISA is Time-Resolved Fluorescence (counts per minute) using Delfia reagents Streptavidin-Europium and Enhancement solutions (Perkin Elmer) and the Victor 2 multilabel counter (Perkin Elmer).

Chain of Beta Secretase enzyme (BACE1) (P56817 46-501): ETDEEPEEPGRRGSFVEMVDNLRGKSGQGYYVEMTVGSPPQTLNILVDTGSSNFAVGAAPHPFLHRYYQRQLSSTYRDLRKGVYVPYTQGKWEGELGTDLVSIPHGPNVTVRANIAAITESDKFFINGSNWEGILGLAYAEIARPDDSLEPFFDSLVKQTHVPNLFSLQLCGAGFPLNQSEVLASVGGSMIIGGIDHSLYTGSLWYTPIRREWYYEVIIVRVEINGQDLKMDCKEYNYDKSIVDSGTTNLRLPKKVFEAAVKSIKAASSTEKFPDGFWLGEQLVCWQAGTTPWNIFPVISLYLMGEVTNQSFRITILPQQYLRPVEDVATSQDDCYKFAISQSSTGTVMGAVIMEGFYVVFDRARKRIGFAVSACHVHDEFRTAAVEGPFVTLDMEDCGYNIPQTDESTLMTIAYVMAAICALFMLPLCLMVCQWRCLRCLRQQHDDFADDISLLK
Chain of Cathepsin D (Cat D) (P07339 65-412, species assumed): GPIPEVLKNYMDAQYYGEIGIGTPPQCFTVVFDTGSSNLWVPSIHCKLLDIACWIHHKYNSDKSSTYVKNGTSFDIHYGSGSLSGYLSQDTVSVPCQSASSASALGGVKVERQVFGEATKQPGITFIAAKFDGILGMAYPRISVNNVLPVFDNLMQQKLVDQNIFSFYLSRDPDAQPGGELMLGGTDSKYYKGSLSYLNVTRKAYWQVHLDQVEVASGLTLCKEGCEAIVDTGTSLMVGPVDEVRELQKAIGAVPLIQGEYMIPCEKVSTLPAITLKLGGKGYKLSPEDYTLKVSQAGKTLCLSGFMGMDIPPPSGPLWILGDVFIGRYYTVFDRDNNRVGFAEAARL

For `C[C@@]1(c2cc(-c3cncnc3)c(F)cc2F)CCSC(N)=N1` [LY 2811376], in data set [1], the rat toxicology finding entry is recorded as “damaged the pigment epithelium of the rat's eye”.
For `C[C@@]1(c2cc(-c3cncnc3)c(F)cc2F)CCSC(N)=N1` [LY2811376, (S)-4-(2,4-difluoro-5-pyrimidin-5-yl-phenyl)-4-methyl-5,6-dihydro-4H-[1,3]thiazin-2-ylamine], in the data set with Aβ in lumbar CSF, the “Aβ reductions in lumbar CSF” value was “Prominent and long-lasting Aβ reductions in lumbar CSF”.
As for `Cc1c(C(=O)Nc2ccc(F)c([C@@]3(C)N=C(N)C4(CC4)S(=O)(=O)[C@H]3F)c2)nc2ccc(Cl)cn12` [Example 462, N-(3-((5R,6R)-8-amino-5-fluoro-6-methyl-4,4-dioxido-4-thia-7-azaspiro[2.5]oct-7-en-6-yl)-4-fluorophenyl)-6-chloro-3-methylimidazo[1,2-a]pyridine-2-carboxamide], the IC50 (usually the midpoint of a concentration-inhibition curve) at Cathepsin D (Cat D) (Cathepsin D FRET assay) was 60100 nM; in data set [2] (average IC50, enzyme assay), 3.2 nM; in data set [3] (Homo sapiens, HEK293, average IC50, HEK cell assay), 10.4 nM.
Consider `COc1cnc(C(=O)Nc2cc([C@]3(C)CS(=O)(=O)C(C)(C)C(N)=N3)c(F)cn2)cn1` [Example 143, (R)—N-(4-(5-amino-3,6,6-trimethyl-1,1-dioxido-3,6-dihydro-2H-1,4-thiazin-3-yl)-5-fluoropyridin-2-yl)-5-methoxypyrazine-2-carboxamide], for which the half-inhibitory concentration (IC50) at Cathepsin D (Cat D) (Table II) was 221000 nM; in data set [2] (average IC50, enzyme assay (Table II)), 115 nM; in data set [3] (Homo sapiens, HEK293, average IC50, cell assay (Table II)), 462 nM.
In the case of “N-(3-((7R)-9-amino-7-(fluoromethyl)-5,5-dioxido-5-thia-8-azaspiro[3.5]non-8-en-7-yl)-4-fluorophenyl)-3-chloro-1,7-naphthyridin-8-amine,N-(3-((7S)-9-amino-7-(fluoromethyl)-5,5-dioxido-5-thia-8-azaspiro[3.5]non-8-en-7-yl)-4-fluorophenyl)-3-chloro-1,7-naphthyridin-8-amine [Example 243]”, the IC50 is 363000 nM on Cathepsin D (Cat D), 1.31 nM in data set [2] (average IC50) and 77.9 nM in data set [3] (average IC50).
Regarding `COc1cnc(C(=O)Nc2ccc(F)c([C@@]3(C(F)(F)F)CS(=O)(=O)C(C)(C)C(N)=N3)c2)cn1` [Example 34, N-(3-((3R)-5-amino-6,6-dimethyl-1,1-dioxido-3-(trifluoromethyl)-3,6-dihydro-2H-1,4-thiazin-3-yl)-4-fluorophenyl)-5-methoxy-2-pyrazinecarboxamide], the IC50 was over 400000 nM on Cathepsin D (Cat D); 883 nM in data set [2]; over 10000 nM in data set [3] (Homo sapiens, HEK293, Aβ40 in conditioned medium after 24 h incubation).
Regarding “N-(3-((4aR,7aS)-3-amino-2,2-dimethyl-1,1-dioxido-7,7a-dihydro-2H-furo[3,4-b][1,4]thiazin-4a(5H)-yl)-4-fluorophenyl)-5-chloro-2-pyridinecarboxamide,N-(3-((4aS,7aR)-3-amino-2,2-dimethyl-1,1-dioxido-7,7a-dihydro-2H-furo[3,4-b][1,4]thiazin-4a(5H)-yl)-4-fluorophenyl)-5-chloro-2-pyridinecarboxamide [Example 426]”, the concentration for half-maximal inhibition (IC50) stood at 170000 nM on Cathepsin D (Cat D); 1.5 nM in data set [2] (average IC50, enzyme assay); 13.6 nM in data set [3] (average IC50, cell assay).
Consider “N-(3-((4aR,7aR)-3-amino-2,2-dimethyl-1,1-dioxido-7,7a-dihydro-2H-furo[3,4-b][1,4]thiazin-4a(5H)-yl)-4-fluorophenyl)-5-(difluoromethoxy)-3-methyl-2-pyridinecarboxamide,N-(3-((4aS,7aS)-3-amino-2,2-dimethyl-1,1-dioxido-7,7a-dihydro-2H-furo[3,4-b][1,4]thiazin-4a(5H)-yl)-4-fluorophenyl)-5-(difluoromethoxy)-3-methyl-2-pyridinecarboxamide [Example 413]”, for which the half-maximal inhibitory concentration (IC50) on Cathepsin D (Cat D) came out at 111000 nM; in data set [2] (average IC50), 2.65 nM; in data set [3] (average IC50), 10.3 nM.
